Measurements reported in US5637724A (priority 1995, dated 1997).

Molecular target: GABAa receptor
Assay: GABAa receptor binding, displacement of 3H-RO15-1788 [3H-Flumazenil]
Conditions: rat cortical tissue, 0.5 nM 3H-RO15-1788, 30 min at 4° C., pH 7.4
Protocol: The pharmaceutical utility of compounds of this invention are indicated by the following assay for GABAa receptor activity.
Assays are carded out as described in Thomas and Tallman (J. Bio. Chem. 156: 9838-9842, J. Neurosci. 3: 433-440, 1983). Rat conical tissue is dissected and homogenized in 25 volumes (w/v) of 0.05M Tris HCl buffer (pH 7.4 at 4° C.). The tissue homogenate is centrifuged in the cold (4°) at 20,000×g for 20'. The supernatant is decanted and the pellet is rehomogenized in the same volume of buffer and again centrifuged at 20,000×g. The supernatant is decanted and the pellet is frozen at -20° C. overnight. The pellet is then thawed and rehomogenized in 25 volume (original wt/vol) of buffer and the procedure is carded out twice. The pellet is finally resuspended in 50 volumes (w/vol of 0.05M Tris HCl buffer (pH 7.4 at […]).
Incubations contain […] of tissue homogenate, […] of radioligand 0.5 nM (3H-RO15-1788 [^3 H-Flumazenil] specific activity 80 Ci/mmol), drug or blocker and buffer to a total volume of […]. Incubations are carried for 30 min at 4° C. then are rapidly filtered through GFB filters to separate free and bound ligand. Filters are washed twice with fresh 0.05M Tris HCl buffer (pH 7.4 at 4° C.) and counted in a liquid scintillation counter. 1.0 mM diazepam is added to some tubes to determine nonspecific binding. Data are collected in triplicate determinations, averaged and % inhibition of total specific binding is calculated. Total Specific Binding=Total-Nonspecific. In some cases, the amounts of unlabeled drugs is varied and total displacement curves of binding are carded out. Data are converted to a form for the calculation of IC50 and Hill Coefficient (nH).

| Compound | Ki [µM] |
| --- | --- |
| O=c1[nH]c2c(n1-c1nc3ccc(F)cc3o1)CCCCC2 [Compound 2] | 0.0046 |
| O=c1[nH]c2c(n1-c1nc3ccc(F)c(F)c3o1)CCCCC2 [Compound 1] | 0.003 |
| O=c1[nH]c2c(n1-c1nc3ccc(F)c(F)c3o1)CCCC2 [Compound 5] | 0.021 |
| O=c1[nH]c2cc(F)ccc2n1-c1nc2ccc(F)cc2o1 [Compound 4, 3-(2-(6-fluorobenzoxazyl))-6-fluorobenzimidazol-2-(1H)-one] | 0.025 |
| O=c1[nH]c2cc(F)ccc2n1-c1nc2cccc(F)c2o1 [Compound 3, 3-(2-(7-fluorobenzoxazyl))-6-fluorobenzimidazol-2-(1H)-one] | 0.014 |
| COc1ccc2oc(-n3c4c([nH]c3=O)CCCC4)nc2c1 [Compound 6] | 0.081 |
